Measurements from a melting point compilation (Tetko et al.; mined from patent text by program, amines drawn as free bases though some values may be those of a salt).

Row | melting point [°C] | SMILES
1 | 119 to 121 | CCOC(=O)c1c(-c2ccccc2)c2c3ccccc3ccn2c1C
2 | 201 | Nc1cc2c(cc1Cl)C(=O)C1(CC1)O2
3 | 100 to 102 | COc1cc(N)c(Cl)cc1C(=O)NCC1CCN(CCCCC(=O)c2ccccc2)CC1
4 | 49 to 50 | C[C@@H]1CCCN1CCc1ccc2cc(Br)ccc2n1
5 | 101 to 103 | Cc1c(C)c2c(c(C)c1NCc1cccs1)C(c1ccc(C(C)C)cc1)C(C)(C)O2 (stereo not drawn)
6 | 169 to 172 | COC(=O)c1cc(C#N)cn1CC(=O)c1ccccc1
7 | 282 to 284 | Cc1cc2c(c3ccc(=O)[nH]c13)OC(CNC=O)C2 (single isomer, unassigned; (+))
8 | 254 | c1ccc(-c2ccc3c(ccc4c5ccccc5[nH]c34)c2)cc1
9 | 105 to 106 | Cc1nc2c(N)nc3ccccc3c2n1CCCCOCCCc1ccccc1
10 | 189 to 190 | CN1CCc2cc(S(=O)(=O)Nc3cnc4cc(Cl)ccc4n3)ccc21
11 | 234 to 237 | CN1C(=O)C(c2cccc(-c3cncnc3)c2)(c2cscn2)N=C1N (stereo not drawn)
12 | 183 to 184 | C[C@H](NC(=O)CC#N)C(=O)N1CCC[C@H]1C(=O)Nc1ccccc1
13 | 200 | Cn1cncc1C(O)(c1ccc(Cl)cc1)c1ccc2c(c1)c(-c1nc(-c3ccccc3)cs1)cc(=O)n2C (stereo not drawn)
14 | 211 to 213 | OCc1nc2cnc3ccccc3c2n1Cc1ccccc1
15 | 254 to 256 | O=C(Nc1cc(Cl)ncn1)c1ccccc1SSc1ccccc1C(=O)Nc1cc(Cl)ncn1
16 | 152 to 154 | CC(C)(C)OC(=O)Nc1ccc(C#Cc2ccc(OC(F)(F)F)cc2)cc1NC(=O)CC(=O)c1cccc(C#N)c1
17 | 90 | COc1ccc(CCN(C)CCOc2ccc(NC(=O)c3cccc4c3Nc3ccccc3S4)cc2)cc1OC
18 | 244 to 245 | CN=C(NC#N)C1=CC2(CCCCC2)Oc2ccc([N+](=O)[O-])cc21
19 | 120 to 122 | CCOC(C)=NS(=O)(=O)c1nc(-c2ccccc2)ns1
20 | 153 to 155 | CCCCC1(CCCC)CS(=O)(=O)c2ccc(N(C)C)cc2[C@@H](c2ccc(OCc3cccc(CN(CC(=O)O)CC(=O)O)n3)cc2)[C@H]1O
21 | 210 to 211 | CC(=O)c1c[nH]c(-c2ccncc2)c1C
22 | 265 to 266 | O=C1CCC(c2ccc(-c3nccs3)cc2)=NN1
23 | 249 to 251 | O=C(O)Cn1c(-c2ccc([N+](=O)[O-])cc2)nc2cccnc21
24 | 99 to 100 | O=C(Cc1ccccc1)C(C[N+](=O)[O-])c1ccccc1 (stereo not drawn)

Row | melting point [°C] | SMILES
25 | 97 | CSC(=CC(=O)C(F)(F)F)SC
26 | 118 | COc1ccc2c(c1)c(C)c(CCCO)n2Cc1ccc(Cl)cc1
27 | 55.5 to 57 | CC1=C2OCOC2CC(C)(C)C1=O (stereo not drawn)
28 | 154 to 156 | O=C(N[C@@H](CO)c1ccccc1)c1cccc(I)c1
29 | 76 to 78 | CCCNC(=O)C(=CN(C)C)C(=O)c1ccccc1Cl
30 | 163 to 165 | CC(=O)OC(Cn1cncn1)(c1ccc(F)cc1F)C1(S(=O)(=O)Cl)CC1 (racemic)
31 | 144 to 145 | FC(F)(F)Sc1ccc(/C=C/c2nc(COc3ccc(-c4nc(Cn5ccnc5)co4)cc3)co2)cc1
32 | 286 to 288 | O=C(O)c1cn(C2CC2)c2c(F)c(-n3cnc(-c4ccccc4)c3)c(F)cc2c1=O
33 | 160 to 161 | CN(C)CCNC(=O)Cc1ccc(OCc2ccc(-c3ccccc3)cc2)cc1
34 | 144 to 145 | CSc1nccc(-c2c(-c3ccc(F)cc3)nc3occn23)n1
35 | 144 to 145 | CNC(=O)[C@H](C)C[C@H](O)[C@H](CC1CCCCC1)NC(=O)OC(C)(C)C
36 | 106 to 108 | CCCCCCC1([N+](=O)[O-])C=CC(C(=O)O)=CC1 (stereo not drawn)
37 | 69 to 69.5 | CCCCc1nccc2c([N+](=O)[O-])cccc12
38 | 136 to 138 | CCOC(=O)c1[nH]c(CC2CCC2)nc1C(F)(F)F
39 | 171 | CCOc1ccc2c(c1)n(-c1ccccn1)c(=O)n2S(=O)(=O)c1ccc(NC(=O)N(CC)CC)cc1OC
40 | 90 to 92 | COc1cc(Cl)c(N=C2NCCN2OCc2ccccc2)c(Cl)c1
41 | 88 to 89 | CCCOc1ccc(S(=O)(=O)N2CCN(CCO)CC2)cc1C(=O)OC
42 | 173 to 175 | Cn1nc(-c2ccc3ccccc3c2)n(C)c1=S
43 | 247 to 249 | Cc1c(-c2ccc(NC(=O)C(C)C)cc2)sc2ncc(C(=O)C(C)C)c(O)c12
44 | 164 to 166 | CCCCN(C)CCc1ccc(Nc2ncc3c(n2)-c2ccccc2[C@H](c2ccc(F)cc2)C3)cc1
45 | 96 to 98 | O=C(CCCCCBr)Nc1ccc(C(F)(F)F)cc1
46 | 89 to 91 | CCOCCOC(=O)C1=C(C)NC(C#N)=C(C(=O)OCC)C1c1cccc([N+](=O)[O-])c1 (stereo not drawn)
47 | 234 | O=C(O)c1ccccc1C(=O)c1cc(-c2ccccc2)c(O)c(-c2ccccc2)c1
48 | 123 to 125 | CCCC1=C(C(=O)OCC)C(c2ccoc2C)c2c[nH]nc2N1 (stereo not drawn)

Row | melting point [°C] | SMILES
49 | 164 to 166 | CCCCCCc1ccc(-c2ccc(C(=O)Oc3ccc(C(=O)O)c(Cl)c3)cc2)cc1
50 | 142 | O=c1ccc(-c2ccc(OC(F)F)c(OCC3CC3)c2)n[nH]1
51 | 197 to 199 | CONC(=O)c1ccc(-c2ccc3nnn(Cc4ccc5ncccc5c4)c3n2)cc1F
52 | 106 to 108 | COc1cc2cc(C)c(CO)c(-c3ccnc(Br)c3)c2cc1OC
53 | 114 to 115 | COc1cc(CCCCN(C)Cc2ccc(OC)c(OC)c2)ccc1NC(=O)c1cccc2c(=O)c3cccc(OC)c3[nH]c12
54 | 162 to 165 | Cc1ccn(-c2nc3ccccc3c(=O)[nH]2)n1
55 | 328 to 330 | O=C1CCC(N2Cc3c(CNC(=O)Nc4ccccc4)cccc3C2=O)C(=O)N1 (stereo not drawn)
56 | 139 to 140 | COc1ccc(CCN2CCN(C(=O)c3ccc(N(CCOC(C)C)C(=O)CCl)cc3)CC2)cc1
57 | 214 to 217 | N#Cc1cc(=O)n2nc(S(=O)(=O)Cc3ccccc3)sc2n1
58 | 127 to 128 | Oc1ccc(-c2nnc(CSCCOc3ccccc3)s2)cc1
59 | 232 | Cc1ccc(NC(=S)Nc2cccc3c2C2CCCCN2C3=O)nc1 (stereo not drawn)
60 | 156 to 157 | COc1nc2ccccc2cc1/C=C/c1cc(CN2CCN(S(C)(=O)=O)CC2)ccc1[N+](=O)[O-]
61 | 121 to 128 | CCOC(=O)Nc1cc(-c2ccccc2)n(-c2ccc(S(N)(=O)=O)cc2)n1
62 | 196 to 199 | O=C(CNc1ccc2[nH]c(=O)sc2c1)N1CCC(Cc2ccccc2)CC1
63 | 130 to 143 | CCCCc1nc2cc(CO)ccc2n1Cc1ccc(-c2ccccc2C(=O)O)cc1
64 | 138 | CC(CC=O)P(=O)(O)CCCCc1ccccc1 (stereo not drawn)
65 | 121 to 123 | Nc1ncccc1OCc1ccc(Cl)cc1
66 | 179 to 181 | Cc1ccc(Cc2ccc3nc(N)sc3c2)s1
67 | 175 to 177 | CC1CCc2c(c(-c3ccccc3)nc(=O)n2C(C)C)C1 (stereo not drawn)
68 | > 100 | CCCCc1nn2cc(CC)nc2n1Cc1ccc(-c2ccccc2-c2nnn[nH]2)cc1
69 | 51 | Cc1nn(C)c(C)c1N=C=S
70 | 234 to 236 | CN1CCN(c2cccc(Nc3nc4c(-c5ccc(S(C)(=O)=O)cc5)cccn4n3)c2)C(=O)C1
71 | 238 | COc1ccc(-c2nc(-c3ccn4c3CCC4)[nH]c2-c2ccc(OC)cc2)cc1
72 | 125 to 130 | Oc1ccc(Oc2cccc(Cl)n2)cc1

Row | melting point [°C] | SMILES
73 | 95 to 98 | CC(Sc1ccc(Cl)cc1Cl)C(=O)O (racemic)
74 | 243 to 245 | CC(CSc1nc(-c2ccc(F)cc2)c(-c2ccc(F)cc2)[nH]1)Sc1nc(-c2ccc(F)cc2)c(-c2ccc(F)cc2)[nH]1 (stereo not drawn)
75 | 245 to 246 | N#Cc1ccccc1C#CC1(C(F)(F)F)OC(=O)Nc2ccc(Cl)cc21 (racemic)
76 | 150 to 185 | COC(=O)C1CCC2ON=C(c3ccc(Cl)cc3)C2CC1 (stereo not drawn)
77 | 177 to 178 | COc1cc2cc(C(=O)CCC(=O)O)sc2cc1OC
78 | 116 | CN(C#N)c1ccc(OCc2ccccc2)cc1
79 | 223 to 224 | CCCCCNc1cc(C(=O)O)cc(S(N)(=O)=O)c1Oc1ccccc1
80 | 240 | CNC(=O)c1nc(Cl)c(Cl)[nH]1
81 | > 245 | O=S(=O)(Nc1ccc(Oc2cccc3cccnc23)c(Cl)c1)c1cccc(C(F)(F)F)c1
82 | 92 to 95 | CCC(=CC(CNC(=O)c1cccnc1O)=NO)C(C)[N+](=O)[O-] (stereo not drawn)
83 | 80 to 86 | O=c1[nH]c(NCCCN(Cc2ccccc2)c2ccccn2)ncc1Cc1ccc(Cl)cc1
84 | 159 to 161 | CCCC(=O)c1cnc2c(OC)cccc2c1Nc1ccccc1OC
85 | 151 to 152 | O=C(Nc1cccc(C(F)(F)F)c1)c1ccccc1NCCc1ccncc1
86 | 125 to 126 | C#CCOc1ccccc1OS(=O)(=O)NC(=O)Nc1nc(OC)cc(OC)n1
87 | 80 to 81 | Cc1cc2c(c(C)c1NCc1ccccc1)CC(C)(C)O2
88 | 166 | O=C(NC1CCCCC1)N1CCC(c2cn(C(=O)NC3CCCCC3)cn2)CC1
89 | 220 | N#Cc1ccc(-c2cnc(F)c(OC3SCC(O)C(O)C3O)c2)cc1 (stereo not drawn)
90 | 146 to 148 | Cc1c(C(=O)O)cccc1-n1cccc1
91 | 207 to 208 | CCOc1cc(S(=O)(=O)CC)ccc1-c1nc2ncccc2[nH]1
92 | 85 to 86 | CS(=O)(=O)N1CCSc2cccc(Cl)c2C1
93 | 139 to 144 | CCOC(=O)C(=O)Nc1sc(-c2ccccc2)cc1[N+](=O)[O-]
94 | 128 to 129 | CCCCC(=O)Nc1c(C)c(C)c2c(c1C)C(c1ccc(C(C)C)cc1)CO2 (stereo not drawn)
95 | 184 to 185 | C[C@@H]1C(=O)N(C(=O)N2CCOCC2)Cc2ccccc2[C@@H]1C (relative stereo)
96 | 80 to 90 | Cc1c(-c2ccc(O)cc2)n(Cc2ccc(OCCN3CCC(O)CC3)cc2)c2ccc(O)cc12

Row | SMILES | melting point [°C]
97 | CCCOC12CCC(=O)C3(C)Oc4c(O)ccc5c4C31CCN(CC1CC1)C2C5 (stereo not drawn) | 184 to 186
98 | O=c1[nH]nc2n1-c1ccc(N3CCCC3)nc1C(c1ccccc1Cl)=NC2 | 228 to 230
